# Assays:
# [1] = tested on: PURPLE NUTSEDGE; assay: Test D; format: in vivo, Cyperus rotundus
# [2] = tested on: RICE JAP EFF; assay: Test C rice paddy; format: in vivo, Japonica rice; conditions: Oryza sativa, 504 h, 21 days, read-out: plant response; for pest or weed control at 64 g/ha: 0064 G/HA; for pest or weed control at 125 g/ha: 0125 G/HA; for pest or weed control at 250 g/ha: 0250 G/HA; for pest or weed control at 500 g/ha: 0500 G/HA
# Description: (§1) Sixteen cm diameter Airlite plastic pots were partially filled with Tama slit loam soil and the soil saturated with water. Japonica and Indica rice seedlings a the 2.0 to 2.5 leaf stage were transplanted into 1/3 of the pots. Into another third of the pots were transplanted seedling or sprouted tubers of water plantain (Alisma trivale), Scripus (Scirpus paludosus), Cyperus (Cyperus esculentus), and arrowhead (Sagittaria spp.). The remaining pots were planted with barnyardgrass (Echinochloa crusgalli) seeds and sprouted tubes of water chestnut (Eleocharis spp.). These weeds all represent major rice weeds or genera of weeds important in rice. Three to four days after planting, the water level was raised to 3 cm (about 1200 ml/pot) and maintained a this level throughout the test. Chemical treatments were applied directly to the paddy water, within 24 hours of raising the water, after being formulated in a nonphytotoxic solvent. The pots were maintained in the greenhouse.
# [3] = tested on: Pythium aphanadermatum; assay: Example J cucumber damping off; format: in vivo; conditions: Pythium, 336 h; 5 kg/ha; read-out: disease control rating, Ex. J
# How it was run: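 Seeds and soil were inoculated with a mix of sand, cereal and Pythium aphanadermatum mycelium, the fungus responsible for cucumber damping off. They were kept in a growth chamber at 30° C. for 14 days, and disease was then rated to assess control.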
# [4] = tested on: BARNYARDGRASS; assay: Test C rice paddy; format: in vivo, Echinochloa crusgalli; conditions: Echinochloa crus-galli, 504 h, 21 days, read-out: plant response; for pest or weed control at 64 g/ha: 0064 G/HA; for pest or weed control at 125 g/ha: 0125 G/HA; for pest or weed control at 250 g/ha: 0250 G/HA; for pest or weed control at 500 g/ha: 0500 G/HA
# Description: as §1
# [5] = tested on: Phytophthora infestans; assay: whole plant or invertebrate; format: in vivo; conditions: Phytophthora infestans, in Solanum lycopersicum, read-out: disease control rating, Ex. H, 100 PPM
# [6] = tested on: Plasmorpara viticola; assay: Example I grape downy mildew; format: in vivo; conditions: read-out: disease control rating, Ex. I
# How it was run: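 First, each compound is taken up in acetone amounting to 6% of the final volume. It is then suspended in purified water containing 250 ppm of the polyhydric alcohol ester surfactant TREM 014, at 100 or 20 ppm. Finally, the suspension is sprayed onto grape seedlings until run-off.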
# [7] = tested on: ARROWHEAD; assay: Test C rice paddy; format: in vivo, Sagittaria spp.; conditions: Sagittaria, 504 h, 21 days, read-out: plant response; for pest or weed control at 64 g/ha: 0064 G/HA; for pest or weed control at 125 g/ha: 0125 G/HA; for pest or weed control at 250 g/ha: 0250 G/HA; for pest or weed control at 500 g/ha: 0500 G/HA
# Description: as §1
# [8] = tested on: Rhizoctonia solani; assay: Example F rice sheath blight; format: in vivo; conditions: Rhizoctonia solani, 144 h, read-out: disease control rating, Ex. F
# How it was run: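 Rice seedlings receive a run-off spray of compound suspended at 100 or 20 ppm. The carrier is purified water containing 250 ppm of a polyhydric alcohol ester surfactant, with acetone making up 6% of the final volume.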
# [9] = tested on: LAMBSQUARTER; assay: Test D; format: in vivo, Chenopodium album
# [10] = tested on: SCIRPUS; assay: Test C rice paddy; format: in vivo, Scirpus paludosus; conditions: Bolboschoenus maritimus, 504 h, 21 days, read-out: plant response; for pest or weed control at 64 g/ha: 0064 G/HA; for pest or weed control at 125 g/ha: 0125 G/HA; for pest or weed control at 250 g/ha: 0250 G/HA; for pest or weed control at 500 g/ha: 0500 G/HA
# Description: as §1
# [11] = tested on: Erysiphe graminis f. sp. tritici; assay: Example D wheat powdery mildew; format: in vivo; conditions: Blumeria graminis, 144 h; 20 PPM; read-out: disease control rating, Ex. D
# How it was run: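 Wheat seedlings receive a run-off foliar spray of compound suspended in purified water at 100 or 20 ppm. The carrier holds 250 ppm TREM 014 plus acetone amounting to 6% of final volume.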
# [12] = tested on: WATER PLAINTAIN; assay: Test C rice paddy; format: in vivo, Alisma trivale; conditions: 504 h, 21 days, read-out: plant response; for pest or weed control at 64 g/ha: 0064 G/HA; for pest or weed control at 125 g/ha: 0125 G/HA; for pest or weed control at 250 g/ha: 0250 G/HA; for pest or weed control at 500 g/ha: 0500 G/HA
# Description: as §1
# [13] = tested on: Puccinia recondita; assay: Example G wheat leaf rust; format: in vivo; conditions: 20 PPM, read-out: disease control rating, Ex. G
# [14] = tested on: GREEN FOXTAIL; assay: Test E; format: in vivo, Setaria viridis; conditions: PREEMERGENCE 0250 GM/HA
# [15] = tested on: MUSTARD SPP.; assay: Test E; format: in vivo, Brassica spp.; conditions: PREEMERGENCE 0250 GM/HA
# [16] = tested on: BLACK NIGHTSHAD; assay: Test E; format: in vivo, Solanum nigrum; conditions: PREEMERGENCE 0250 GM/HA
# [17] = tested on: CMN CHICKWEED; assay: Test E; format: in vivo, Stellaria media; conditions: PREEMERGENCE 0250 GM/HA
# [18] = tested on: WILD RADISH; assay: Test E; format: in vivo, Raphanus raphanistrum; conditions: PREEMERGENCE 0250 GM/HA
smiles,measurement,setting,value
"C=C(c1ccccc1Cl)C(O)(Cn1cncn1)c1ccc(Cl)cc1Cl (centres unmarked) [Example 33, 2-(2,4-Dichlorophenyl)-3-(2-chlorophenyl)-1-(1H-1,2,4-triazol-1-yl)-3-buten-2-ol]",plant response,[1]; POSTEMERGENCE 0250 GM/HA,0%
same,plant response,[1]; POSTEMERGENCE 0500 GM/HA,0%
same,plant response,[1]; POSTEMERGENCE 1000 GM/HA,0%
same,plant response,[1]; PREEMERGENCE 0250 GM/HA,0%
same,plant response,[1]; PREEMERGENCE 0500 GM/HA,0%
same,plant response,[1]; PREEMERGENCE 1000 GM/HA,0%
same,pest or weed control at 64 g/ha,[2],0%
same,pest or weed control at 125 g/ha,[2],0%
same,pest or weed control at 250 g/ha,[2],0%
same,pest or weed control at 500 g/ha,[2],30%
same,pest or weed control at 1000 g/ha,[2],60%
same,pest or weed control at 5000 g/ha,[3],0%
same,pest or weed control at 64 g/ha,[4],0%
same,pest or weed control at 125 g/ha,[4],10%
same,pest or weed control at 250 g/ha,[4],80%
same,pest or weed control at 500 g/ha,[4],70%
same,pest or weed control at 1000 g/ha,[4],95%
same,pest or weed control at 100 ppm,[5],0%
same,pest or weed control at 100 ppm,[6],24%
same,pest or weed control at 64 g/ha,[7],0%
same,pest or weed control at 125 g/ha,[7],0%
same,pest or weed control at 250 g/ha,[7],0%
same,pest or weed control at 500 g/ha,[7],0%
same,pest or weed control at 1000 g/ha,[7],0%
same,pest or weed control at 20 ppm,[8]; 20 PPM,29%
same,pest or weed control at 100 ppm,[8]; 100 PPM,60%
same,plant response,[9]; POSTEMERGENCE 0250 GM/HA,0%
same,plant response,[9]; POSTEMERGENCE 0500 GM/HA,0%
same,plant response,[9]; POSTEMERGENCE 1000 GM/HA,0%
same,plant response,[9]; PREEMERGENCE 0250 GM/HA,0%
same,plant response,[9]; PREEMERGENCE 0500 GM/HA,0%
same,plant response,[9]; PREEMERGENCE 1000 GM/HA,0%
same,pest or weed control at 64 g/ha,[10],0%
same,pest or weed control at 125 g/ha,[10],0%
same,pest or weed control at 250 g/ha,[10],0%
same,pest or weed control at 500 g/ha,[10],0%
same,pest or weed control at 1000 g/ha,[10],0%
same,pest or weed control at 20 ppm,[11],89%
same,pest or weed control at 64 g/ha,[12],0%
same,pest or weed control at 125 g/ha,[12],0%
same,pest or weed control at 250 g/ha,[12],0%
same,pest or weed control at 500 g/ha,[12],0%
same,pest or weed control at 1000 g/ha,[12],0%
same,pest or weed control at 20 ppm,[13],100%
C=C(c1ccc(Cl)cc1Cl)C(O)(Cn1cncn1)c1ccccc1F (centres unmarked) [Example 107],pest or weed control at 64 g/ha,[2],0%
same,pest or weed control at 125 g/ha,[2],0%
same,pest or weed control at 250 g/ha,[2],30%
same,pest or weed control at 500 g/ha,[2],40%
same,pest or weed control at 1000 g/ha,[2],50%
same,plant response,[14],100%
same,pest or weed control at 64 g/ha,[4],0%
same,pest or weed control at 125 g/ha,[4],0%
same,pest or weed control at 250 g/ha,[4],40%
same,pest or weed control at 500 g/ha,[4],90%
same,pest or weed control at 1000 g/ha,[4],80%
same,plant response,[15],20%
same,plant response,[16],80%
same,plant response,[17],0%
same,pest or weed control at 64 g/ha,[7],0%
same,pest or weed control at 125 g/ha,[7],0%
same,pest or weed control at 250 g/ha,[7],0%
same,pest or weed control at 500 g/ha,[7],95%
same,pest or weed control at 1000 g/ha,[7],70%
same,pest or weed control at 64 g/ha,[10],0%
same,pest or weed control at 125 g/ha,[10],0%
same,pest or weed control at 250 g/ha,[10],60%
same,pest or weed control at 500 g/ha,[10],80%
same,pest or weed control at 1000 g/ha,[10],80%
same,plant response,[18],60%
same,pest or weed control at 64 g/ha,[12],0%
same,pest or weed control at 125 g/ha,[12],0%
same,pest or weed control at 250 g/ha,[12],0%
same,pest or weed control at 500 g/ha,[12],60%
same,pest or weed control at 1000 g/ha,[12],80%
